What was measured:
Rattus norvegicus [1] = organism: Rattus norvegicus; test: Product stereoselectivity in presence of rat liver microsomes; type: functional
Rattus norvegicus [2] = organism: Rattus norvegicus; test: Stereoselectivity in presence of rat liver microsomes; type: functional

**Q.** For COCCc1ccc(OC[C@@H](O)CNC(C)C)cc1, which Activity (Rattus norvegicus [1]) is on record?
**A.** Its Activity is 96.3%.

**Q.** Which Activity (Rattus norvegicus [2]) does the source give for COCCc1ccc(OC[C@H](O)CNC(C)C)cc1 here?
**A.** Its Activity is 90.4%.

**Q.** How did the Activity (Rattus norvegicus [2]) turn out when COCCc1ccc(OCC(O)CNC(C)C)cc1 (racemic) was run?
**A.** Its Activity is 93.2%.

— ChEMBL document CHEMBL1123962, “Chemical aspects of metoprolol metabolism. Asymmetric synthesis and absolute configuration of the 3-[4-(1-hydroxy-2-methoxyethyl)phenoxy]-1-(isopropylamino)-2-propanols , the diastereomeric benzylic hydroxylation metabolites” (J Med Chem, 1988)
